# Like-named read-outs stand apart in the source and are kept apart here.
# Experiments:
# [1] = system: Toxoplasma gondii; test: inhibition of intracellular replication of T. gondii in infected L929 cells, uracil incorporation assay; format: cell-based; set-up: Activity, Mean: unit not given here; conditions: for Activity, Mean: uracil incorporation; for inhibition at 1 µM / inhibition at 10 µM / inhibition at 50 µM / inhibition at 0.1 µM: Toxoplasma gondii, L929, read-out: Activity, % of control (inhibition)
# Protocol: Toxoplasma gondii is the causative agent of cerebral toxoplasmic encephalitis, an AIDS-related opportunistic infection. The biological activity of the endoperoxide JHU 2886 of the present invention was measured against Toxoplasma gondii cultured in L929 cells. The inhibitory activity of the synthetic organic endoperoxide was tested by measuring the intracellular replication of T. gondii in infected L929 cells. The inhibition of the intracellular replication of T. gondii was determined using the uracil incorporation assay (20). […] This compound is referred to as JHU 2886 in Table 1. In this experiment atovaquone and artemisinin were used as positive controls. Atovaquone is a broad-spectrum anti-infective drug having antimalarial and antitoxoplasmosis activity (19). | measured using the MTT assay (Promega kit) and inhibition of the | intracellular replication of T. gondii was determined using the uracil | incorporation assay.
# [2] = system: L929 cells; test: cytotoxicity to L929 cells, MTT assay (viability and replication); format: cell-based; set-up: Toxicity, Mean: unit not given here; conditions: for Toxicity, Score / Toxicity, Mean / inhibition at 0.1 µM / inhibition at 1 µM / inhibition at 10 µM / inhibition at 50 µM: L929 cells; for Toxicity, Mean: MTT; for inhibition at 0.1 µM / inhibition at 1 µM / inhibition at 10 µM / inhibition at 50 µM: Mus musculus, read-out: Toxicity, % of control (inhibition)
# Protocol: Toxoplasma gondii is the causative agent of cerebral toxoplasmic encephalitis, an AIDS-related opportunistic infection. The biological activity of the endoperoxide JHU 2886 of the present invention was measured against Toxoplasma gondii cultured in L929 cells.
# More specifically, the cytotoxicity of synthetic organic endoperoxide JHU 2886 was tested in L929 cells by measuring the viability and replication of exposed cells. The cytotoxicity of the compound to the cultured cells was measured using the MTT assay (Promega kit), according to the procedure of Carmichael et al. (18). MTT is an abbreviation for [3-(4,5-dimethylthiazol-2-yl)-2,5-dephenyltetrazolium bromide].
# This compound is referred to as JHU 2886 in Table 1. In this experiment atovaquone and artemisinin were used as positive controls. Atovaquone is a broad-spectrum anti-infective drug having antimalarial and antitoxoplasmosis activity (19).
# ^1 The cytotoxicity of each compound for the cultured cells was
# measured using the MTT assay (Promega kit) and inhibition of the […]
structure (smiles),measurement,setting,value
c1ccc(C23CCCC(c4ccccc4)(CC2)OO3)cc1 [JHU 2886],"antiparasitic activity, in words","[1]; 24 and 48 hours, all concentrations tested",significant antiparasitic activity
same,"Activity, Score","[1]; 24 hours, dose 0.1 μM",2 (>20%-≤40%)
same,"Activity, Mean","[1]; 24 hours, dose 0.1 μM",6079
same,"Activity, Score","[1]; 24 hours, dose 1.0 μM",3 (>40%-≤70%)
same,"Activity, Mean","[1]; 24 hours, dose 1.0 μM",2668
same,"Activity, Score","[1]; 24 hours, dose 10.0 μM",4 (>70%-≤90%)
same,"Activity, Mean","[1]; 24 hours, dose 10.0 μM",1967
same,"Activity, Score","[1]; 24 hours, dose 50.0 μM",4 (>70%-≤90%)
same,"Activity, Mean","[1]; 24 hours, dose 50.0 μM",2104
same,"Activity, Score","[1]; 48 hours, dose 0.1 μM",1 (≤20%)
same,"Activity, Mean","[1]; 48 hours, dose 0.1 μM",14841
same,"Activity, Score","[1]; 48 hours, dose 1.0 μM",1 (≤20%)
same,"Activity, Mean","[1]; 48 hours, dose 1.0 μM",12880
same,"Activity, Score","[1]; 48 hours, dose 10.0 μM",4 (>70%-≤90%)
same,"Activity, Mean","[1]; 48 hours, dose 10.0 μM",4428
same,"Activity, Score","[1]; 48 hours, dose 50.0 μM",4 (>70%-≤90%)
same,"Activity, Mean","[1]; 48 hours, dose 50.0 μM",1808
same,"antiparasitic activity, in words","[1]; 72 hours, 1 μM and above",significant activity
same,"Activity, Score","[1]; 72 hours, dose 0.1 μM",1 (≤20%)
same,"Activity, Mean","[1]; 72 hours, dose 0.1 μM",6934
same,"Activity, Score","[1]; 72 hours, dose 1.0 μM",1 (≤20%)
same,"Activity, Mean","[1]; 72 hours, dose 1.0 μM",6219
same,"Activity, Score","[1]; 72 hours, dose 10.0 μM",4 (>70%-≤90%)
same,"Activity, Mean","[1]; 72 hours, dose 10.0 μM",1321
same,"Activity, Score","[1]; 72 hours, dose 50.0 μM",4 (>70%-≤90%)
same,"Activity, Mean","[1]; 72 hours, dose 50.0 μM",1252
same,inhibition at 1 µM,"[1]; 24 hours, dose 1.0 μM",69.6%
same,inhibition at 10 µM,"[1]; 24 hours, dose 10.0 μM",77.6%
same,inhibition at 50 µM,"[1]; 24 hours, dose 50.0 μM",76%
same,inhibition at 0.1 µM,"[1]; 48 hours, dose 0.1 μM",6.18%
same,inhibition at 1 µM,"[1]; 48 hours, dose 1.0 μM",18.6%
same,inhibition at 10 µM,"[1]; 48 hours, dose 10.0 μM",72%
same,inhibition at 50 µM,"[1]; 48 hours, dose 50.0 μM",88.6%
same,inhibition at 0.1 µM,"[1]; 72 hours, dose 0.1 μM",3.24%
same,inhibition at 1 µM,"[1]; 72 hours, dose 1.0 μM",13.2%
same,inhibition at 10 µM,"[1]; 72 hours, dose 10.0 μM",81.6%
same,inhibition at 50 µM,"[1]; 72 hours, dose 50.0 μM",82.5%
same,"toxicity in L929 cells, in words",[2]; 50 μM,some toxicity
same,"toxicity in L929 cells, in words","[2]; 24, 48 and 72 hours, concentrations as high as 10 μM",little toxicity
same,"Toxicity, Score","[2]; 24 hours, dose 0.1 μM",1 (≤20%)
same,"Toxicity, Mean","[2]; 24 hours, dose 0.1 μM",0.129
same,"Toxicity, Score","[2]; 24 hours, dose 1.0 μM",0
same,"Toxicity, Mean","[2]; 24 hours, dose 1.0 μM",0.133
same,"Toxicity, Score","[2]; 24 hours, dose 10.0 μM",0
same,"Toxicity, Mean","[2]; 24 hours, dose 10.0 μM",0.130
same,"Toxicity, Score","[2]; 24 hours, dose 50.0 μM",2 (>20%-≤40%)
same,"Toxicity, Mean","[2]; 24 hours, dose 50.0 μM",0.089
same,"Toxicity, Score","[2]; 48 hours, dose 0.1 μM",0
same,"Toxicity, Mean","[2]; 48 hours, dose 0.1 μM",0.227
same,"Toxicity, Score","[2]; 48 hours, dose 1.0 μM",0
same,"Toxicity, Mean","[2]; 48 hours, dose 1.0 μM",0.219
same,"Toxicity, Score","[2]; 48 hours, dose 10.0 μM",0
same,"Toxicity, Mean","[2]; 48 hours, dose 10.0 μM",0.217
same,"Toxicity, Score","[2]; 48 hours, dose 50.0 μM",2 (>20%-≤40%)
same,"Toxicity, Mean","[2]; 48 hours, dose 50.0 μM",0.147
same,"Toxicity, Score","[2]; 72 hours, dose 0.1 μM",0
same,"Toxicity, Mean","[2]; 72 hours, dose 0.1 μM",0.479
same,"Toxicity, Score","[2]; 72 hours, dose 1.0 μM",0
same,"Toxicity, Mean","[2]; 72 hours, dose 1.0 μM",0.460
same,"Toxicity, Score","[2]; 72 hours, dose 10.0 μM",0
same,"Toxicity, Mean","[2]; 72 hours, dose 10.0 μM",0.448
same,"Toxicity, Score","[2]; 72 hours, dose 50.0 μM",2 (>20%-≤40%)
same,"Toxicity, Mean","[2]; 72 hours, dose 50.0 μM",0.275
same,inhibition at 0.1 µM,"[2]; 24 hours, dose 0.1 μM",0.26%
same,inhibition at 1 µM,"[2]; 24 hours, dose 1.0 μM",0%
same,inhibition at 10 µM,"[2]; 24 hours, dose 10.0 μM",0%
same,inhibition at 50 µM,"[2]; 24 hours, dose 50.0 μM",31.2%
same,inhibition at 0.1 µM,"[2]; 48 hours, dose 0.1 μM",0%
same,inhibition at 1 µM,"[2]; 48 hours, dose 1.0 μM",0%
same,inhibition at 10 µM,"[2]; 48 hours, dose 10.0 μM",0%
same,inhibition at 50 µM,"[2]; 48 hours, dose 50.0 μM",30.4%
same,inhibition at 0.1 µM,"[2]; 72 hours, dose 0.1 μM",0%
same,inhibition at 1 µM,"[2]; 72 hours, dose 1.0 μM",0%
same,inhibition at 10 µM,"[2]; 72 hours, dose 10.0 μM",0%
same,inhibition at 50 µM,"[2]; 72 hours, dose 50.0 μM",37.4%

# Reference: patent publication US5817692A, “Endoperoxides useful as antiparasitic agents” (priority 1996, dated 1998)
